Results from US7531355B2, “Methods and compositions for smooth muscle reconstruction” (The Regents of the University of California, priority 2005, dated 2009).

Legend:
undifferentiated PLA = test: Smooth muscle contraction in vitro assay (collagen gel), control cells; assay type: cell-based
Experimental: (§1) A mixture of 50% collagen solution (Vitrogen), 25% 4×DMEM with supplemented sodium bicarbonate prepared from powder (Gibco), ˜5 μl volume of glass bead (120-150 μm soda lime microspheres in light blue color) were added to approximately 5×10^5 cells (smooth muscle cells differentiated from ADSCs, although other cell types were utilized as negative controls) to a total volume of 400 μl was prepared on ice. The slurry was transferred to a 24-well plate (with calculated resulting thickness of around 2 mm) and the gel was allowed to polymerize in the 37° C. incubator overnight. Appropriate cell culture medium was added the next day to supplement cell growth, e,.g., smooth muscle medium was added to smooth muscle cells or adipogenic medium was added to adipose cells. The gel was incubated again for another night.
(§2) The following day (2 days after casting the gel) the gel was partially released (i.e., about 280° around the circumference of the well) from the tissue culture well by gently pulling the gel away from the side of the well with a pipette. Carbachol (an acetylcholine agonist) was added to the partially released gel. Response to addition of the drug was monitored by use of a microscope connected to a real-time camera.
(§3) Murine NIH 3T3 (fibroblasts ) or undifferentiated PLA cells were run concurrently as controls.
(§4) Pictures were taken before the gel was released at marked fields. […]

fibroblasts (NIH 3T3) = test: as above; assay type: cell-based, Murine; details: control cells NIH 3T3
Experimental: as §1, §2, §3, §4

[1] = system: smooth muscle cells differentiated from ADSCs; test: Smooth muscle contraction in vitro assay (collagen gel); assay type: cell-based
Experimental: as §1, §2
Pictures were taken before the gel was released at marked fields. The gel was released with a pipette tip about 280° around the wall of the well. […]

## C[N+](C)(C)CCOC(N)=O [Carbachol]
Undifferentiated PLA
  contractile response of gel to the agent: very weak response
Fibroblasts (NIH 3T3)
  contractile response of gel to the agent: very weak response

## CNC[C@H](O)c1cccc(O)c1 [Phenylephrine]
[1]; agent added to partially released gel
  contractile response of gel to the agent: shown to contract gels

## CC(C)NCC(O)COc1cccc2ccccc12 (stereo not drawn) [Propranolol]
[1]; added beforehand
  effect on contractile response to isoproterenol: reduced the contractile response

## CC(C)NCC(O)c1ccc(O)c(O)c1 (stereo not drawn) [isoproterenol]
Undifferentiated PLA
  contractile response of gel to the agent: no response
Fibroblasts (NIH 3T3)
  contractile response of gel to the agent: no response
